The values below come from ChEMBL document CHEMBL1139090, “Synthesis of potent and tissue-selective androgen receptor modulators (SARMs): 2-(2,2,2)-Trifluoroethyl-benzimidazole scaffold” (Bioorg Med Chem Lett, 2007).

Data set [1] deals with Rattus norvegicus. Put plainly: Inhibition of prostate weight in immature Sprague-Dawley rat at 2 mg/day, sc relative to testosterone. The settings on record: for Activity: Prostate gland. Format: functional, Prostate gland.
Data set [2] is filed under the species Rattus norvegicus. Put plainly: Stimulation of levator ani muscle weight in immature Sprague-Dawley rat at 2 mg/day relative to testosterone. It is filed as functional.
For data set [3], the species on record is Rattus norvegicus. Put plainly: Stimulation of levator ani muscle weight in immature Sprague-Dawley rat. Format: functional.
For the next data set, the target named is T1, Androgen receptor (Homo sapiens, UniProt P10275).
T1 sequence (P10275 whole entry): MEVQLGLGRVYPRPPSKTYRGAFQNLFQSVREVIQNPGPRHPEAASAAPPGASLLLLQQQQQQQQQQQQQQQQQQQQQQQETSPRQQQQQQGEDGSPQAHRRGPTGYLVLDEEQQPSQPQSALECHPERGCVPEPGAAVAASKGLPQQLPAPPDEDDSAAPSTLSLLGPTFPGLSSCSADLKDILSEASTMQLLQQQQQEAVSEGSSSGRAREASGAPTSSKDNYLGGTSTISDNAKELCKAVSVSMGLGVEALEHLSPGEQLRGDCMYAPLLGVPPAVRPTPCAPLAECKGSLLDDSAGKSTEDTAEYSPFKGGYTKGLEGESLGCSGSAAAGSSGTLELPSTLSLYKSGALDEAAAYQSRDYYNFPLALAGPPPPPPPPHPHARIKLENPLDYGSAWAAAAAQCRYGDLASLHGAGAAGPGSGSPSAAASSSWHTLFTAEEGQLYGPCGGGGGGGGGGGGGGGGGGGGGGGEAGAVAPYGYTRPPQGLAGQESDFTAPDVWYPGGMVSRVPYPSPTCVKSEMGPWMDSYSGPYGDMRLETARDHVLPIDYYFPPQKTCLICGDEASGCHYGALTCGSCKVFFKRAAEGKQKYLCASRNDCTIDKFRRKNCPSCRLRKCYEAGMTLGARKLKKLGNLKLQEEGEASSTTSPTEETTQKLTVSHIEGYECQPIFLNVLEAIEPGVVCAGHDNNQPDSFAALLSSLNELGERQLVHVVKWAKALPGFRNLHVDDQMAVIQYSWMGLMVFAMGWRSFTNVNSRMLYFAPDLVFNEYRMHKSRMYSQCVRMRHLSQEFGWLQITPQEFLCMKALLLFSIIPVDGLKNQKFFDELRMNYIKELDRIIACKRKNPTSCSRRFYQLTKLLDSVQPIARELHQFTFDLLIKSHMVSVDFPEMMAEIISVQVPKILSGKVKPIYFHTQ
Put plainly: Binding affinity at androgen receptor expressed in COS cells by whole cell binding assay. Format: cell-based.

The species named for data set [4] is Rattus norvegicus. Put plainly: Inhibition of prostate weight in immature Sprague-Dawley rat. Format: functional, Prostate gland.
The species entered for data set [5] is Rattus norvegicus. Put plainly: Stimulation of levator ani muscle weight in mature Sprague-Dawley rat. Format: functional.
For data set [6], the species on record is Rattus norvegicus. Put plainly: Toxicity in immature Sprague-Dawley rat at 3 mg/day. The note with it: in vivo. It is filed as organism-based.

Active and inactive are the calls of the source. The calls are words filed in the database; no cut-off is given here.

As usually defined, the Inhibition is the relative decrease from the control value, in per cent. Consider `N#CCC(O)(c1nc2cc(Cl)c(Cl)cc2[nH]1)C(F)(F)F` (stereo unspecified), for which the Inhibition in the data set with Rattus norvegicus [1] was 9%. The molecule further gave an Activity in the data set listed under Rattus norvegicus [2] of 126%. The molecule further had an ED50 in the data set filed under Rattus norvegicus [3] of 0.03 mg/day.
As to `C=C(C)C(O)(c1nc2cc(Cl)c(Cl)cc2[nH]1)C(F)(F)F` (stereo unspecified), the Inhibition in the data set with Rattus norvegicus [1] is given as 127%. For the same molecule, in the data set filed under Rattus norvegicus [2], the outcome was inactive.
`C=C(C)CC(O)(c1nc2cc(Cl)c(Cl)cc2[nH]1)C(F)(F)F` (stereo unspecified): the Inhibition with Rattus norvegicus [1] is listed as 59%. This molecule also registered an Activity in the data set listed under Rattus norvegicus [2] of 17%.
As usually defined, the IC50 is the concentration needed to halve the response being measured. On to `CC(C)C(O)(c1nc2cc(Cl)c(Cl)cc2[nH]1)C(F)(F)F` (stereo unspecified), for which the Inhibition in the data set with Rattus norvegicus [1] is listed as 33%. This molecule gave an Activity in the data set listed under Rattus norvegicus [2] of 87%. Besides, the ED50 in the data set filed under Rattus norvegicus [3] came out at 0.05 mg/day. At Androgen receptor, this molecule registered a half-maximal inhibitory concentration (IC50) of 2 nM.
Consider `OC(c1ccccc1)(c1nc2cc(Cl)c(Cl)cc2[nH]1)C(F)(F)F` (stereo unspecified), for which the Inhibition in the data set with Rattus norvegicus [1] is 61%. For the same molecule, in the data set listed under Rattus norvegicus [2], the result was inactive.
For `C=C=C(C)C(O)(c1nc2cc(Cl)c(Cl)cc2[nH]1)C(F)(F)F` (stereo unspecified) the same measures were 78% and 15%.
As to `CCCC(O)(c1nc2cc(Cl)c(Cl)cc2[nH]1)C(F)(F)F` (stereo unspecified), the Inhibition in the data set on Rattus norvegicus [1] worked out at 63%. In the data set filed under Rattus norvegicus [2], the Activity was 67%.
As to `C#CCC(O)(c1nc2cc(Cl)c(Cl)cc2[nH]1)C(F)(F)F` (stereo unspecified), in the data set on Rattus norvegicus [1], the Inhibition was 68%. In addition, the Activity in the data set filed under Rattus norvegicus [2] is recorded as 71%.
Turning to `FC(F)(F)C1(c2nc3cc(Cl)c(Cl)cc3[nH]2)C=CCO1` (stereo unspecified), the result in the data set with Rattus norvegicus [1] was inactive. Also, the Activity in the data set listed under Rattus norvegicus [2] is 50%.
Consider `FC(F)(F)C1(c2nc3cc(Cl)c(Cl)cc3[nH]2)CCCO1` (stereo unspecified), for which the Inhibition in the data set with Rattus norvegicus [1] was 55%. This molecule also yielded an Activity in the data set filed under Rattus norvegicus [2] of 64%.
With `C[C@](O)(CS(=O)(=O)c1ccc(F)cc1)C(=O)Nc1ccc(C#N)c(C(F)(F)F)c1` [(R)-BICALUTAMIDE], the Inhibition in the data set on Rattus norvegicus [1] was 70%. For the same molecule, the outcome in the data set filed under Rattus norvegicus [2] was inactive.
As to `FC(F)(F)C1(c2nc3cc(Cl)c(Cl)cc3[nH]2)CCCN1` (stereo unspecified), the Inhibition with Rattus norvegicus [1] came to 35%. The same molecule displayed an Activity in the data set listed under Rattus norvegicus [2] of 4%.
Regarding `C/C=C\C(O)(c1nc2cc(Cl)c(Cl)cc2[nH]1)C(F)(F)F` (stereo unspecified), the Inhibition in the data set on Rattus norvegicus [1] is reported as 70%. The Activity in the data set listed under Rattus norvegicus [2] is given as 73%. In addition, the ED50 in the data set filed under Rattus norvegicus [3] is 0.11 mg/day.
As for `CC#CC(O)(c1nc2cc(Cl)c(Cl)cc2[nH]1)C(F)(F)F` (stereo unspecified), the Inhibition in the data set on Rattus norvegicus [1] is recorded as 79%. Also, the result in the data set filed under Rattus norvegicus [2] was inactive.
With `C=C=CC(O)(c1nc2cc(Cl)c(Cl)cc2[nH]1)C(F)(F)F` (stereo unspecified), the Inhibition in the data set on Rattus norvegicus [1] came out at 85%. In the data set filed under Rattus norvegicus [2], the Activity is given as 99%. In addition, the ED50 in the data set listed under Rattus norvegicus [3] amounted to 0.075 mg/day.
For the molecule `CC(C)=CC(O)(c1nc2cc(Cl)c(Cl)cc2[nH]1)C(F)(F)F` (stereo unspecified), the Inhibition in the data set on Rattus norvegicus [1] stood at 45%. Besides, in the data set listed under Rattus norvegicus [2], the Activity is recorded as 13%.
On to `C=CCC(O)(c1nc2cc(Cl)c(Cl)cc2[nH]1)C(F)(F)F` (stereo unspecified), for which, in the data set with Rattus norvegicus [1], the Inhibition worked out at 87%. Besides, in the data set filed under Rattus norvegicus [2], the Activity came to 34%. Besides, the ED50 in the data set listed under Rattus norvegicus [3] is 1.4 mg/day. Further, the ID50 in the data set filed under Rattus norvegicus [4] came out at 0.67 mg/day.
For the molecule `CCSCC(O)(c1nc2cc(Cl)c(Cl)cc2[nH]1)C(F)(F)F` (stereo unspecified), the Inhibition in the data set on Rattus norvegicus [1] came out at 31%. Moreover, the Activity in the data set listed under Rattus norvegicus [2] is 96%. Further, the ED50 in the data set filed under Rattus norvegicus [3] turned out to be 0.1 mg/day. On Androgen receptor, this molecule registered an IC50 of 17 nM.
Turning to `OC(Cc1ccccc1)(c1nc2cc(Cl)c(Cl)cc2[nH]1)C(F)(F)F` (stereo unspecified), the Inhibition in the data set on Rattus norvegicus [1] came out at 86%. The outcome in the data set listed under Rattus norvegicus [2] was inactive.
For `CC(C)=CCC(O)(c1nc2cc(Cl)c(Cl)cc2[nH]1)C(F)(F)F` (stereo unspecified) the same measures were 71% and “inactive”.
For `FC(F)(F)C1(c2nc3cc(Cl)c(Cl)cc3[nH]2)C=CCN1` (stereo unspecified) the same measures were 57% and 8%.
Taken in the same sequence, the figures for `OC(Cc1ccc(F)cc1)(c1nc2cc(Cl)c(Cl)cc2[nH]1)C(F)(F)F` (stereo unspecified) were 72% and “inactive”.
Regarding `OC(CSCC(F)(F)F)(c1nc2cc(Cl)c(Cl)cc2[nH]1)C(F)(F)F` (stereo unspecified), the result with Rattus norvegicus [1] was inactive. For the same molecule, the Activity in the data set listed under Rattus norvegicus [2] turned out to be 26%.
Consider `C=CC(O)(c1nc2cc(Cl)c(Cl)cc2[nH]1)C(F)(F)F` (stereo unspecified), for which the Inhibition with Rattus norvegicus [1] amounted to 56%. The ED50 is < 0.3 mg/kg in the data set listed under Rattus norvegicus [5] and 0.04 mg/day in the data set listed under Rattus norvegicus [3]. This molecule also gave an Activity in the data set listed under Rattus norvegicus [2] of 82%. Besides, at Androgen receptor, the IC50 came out at 7 nM.
Regarding `C/C=C/CC(O)(c1nc2cc(Cl)c(Cl)cc2[nH]1)C(F)(F)F` (stereo unspecified), the Inhibition in the data set with Rattus norvegicus [1] amounted to 74%. In the data set filed under Rattus norvegicus [2], this molecule showed an Activity of 10%.
For `CC(C)=C(C)C(O)(c1nc2cc(Cl)c(Cl)cc2[nH]1)C(F)(F)F` (stereo unspecified) the same measures were 47% and “inactive”.
Consider `CCC(O)(c1nc2cc(Cl)c(Cl)cc2[nH]1)C(F)(F)F` (stereo unspecified), for which the Activity result in the data set listed under Rattus norvegicus [6] is recorded as “Toxic”; in the data set listed under Rattus norvegicus [2], 106%. Besides, the Inhibition in the data set with Rattus norvegicus [1] is listed as 25%.
With `CCC(C)(C)C(O)(c1nc2cc(Cl)c(Cl)cc2[nH]1)C(F)(F)F` (stereo unspecified), in the data set with Rattus norvegicus [1], the Inhibition is given as 42%. The molecule also showed an Activity in the data set listed under Rattus norvegicus [2] of 11%.
As for `C/C=C/C(O)(c1nc2cc(Cl)c(Cl)cc2[nH]1)C(F)(F)F` (stereo unspecified), the Inhibition in the data set with Rattus norvegicus [1] turned out to be 61%. This molecule also came in with an Activity in the data set listed under Rattus norvegicus [2] of 23%.
